From patent US9980943B2, “Methods of treating muscular dystrophy” (BOARD OF REGENTS OF THE NEVADA SYSTEM OF HIGHER EDUCATION, …, priority 2013, dated 2018)

Columns and labels:
Type in all cases: cell-based, mouse
[1] = system: α7 integrin (LacZ reporter in α7βgal+/− myoblasts); test: Myoblast α7+/LacZ integrin FDG assay (Burkin assay in myoblasts, 96-well); details: 96-well; for Burkin Assay in Myoblasts, signal relative to DMSO: α7+/LacZ myoblasts; for Burkin Assay in Myoblasts, value relative to DMSO: SU9516 analogs, N=3-6
[2] = system: α7 integrin (LacZ reporter in α7+/LacZ myotubes); test: Myotube α7 integrin FDG assay (Burkin assay in myotubes, 96-well); details: for Burkin Assay in Myotubes, value relative to DMSO: SU9516 analogs, 96-well, N=3-6
[3] = system: β-galactosidase in CMV-LacZ C2C12 myoblasts; test: CMV-LacZ secondary screen in C2C12 myoblasts (β-Gal stabilizing assay); details: for CMV-LACZ in Myoblasts (β-galactosidase activity relative to DMSO): CMV-LacZ C2C12 myoblasts; for CMV-LACZ in Myoblasts, value relative to DMSO: SU9516 analogs, C2C12 CMV-LacZ, N=2
Summary of the method: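 β-gal stabilization was measured in C2C12 myoblasts or myotubes stably transfected with a CMV-driven LacZ construct, using the FDG β-gal assay. Compounds were tested in dose-response at 0.5, 1, 5, 10, 20 and 40 μM, with two replicates per point.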

[4] = system: β-galactosidase in CMV-LacZ C2C12 myotubes; test: CMV-LacZ secondary screen in C2C12 myotubes (β-Gal stabilizing assay); details: for CMV-LACZ in Myotubes, signal relative to DMSO: C2C12 CMV-LacZ myotubes, fold relative to DMSO; for CMV-LACZ in Myotubes, value relative to DMSO: SU9516 analogs, C2C12 CMV-LacZ, N=2
Summary of the method: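 A secondary screen identifies compounds that stabilize β-gal independently of the native promoter, using CMV-LacZ C2C12 cells. Curves span 0.5–40 μM at six levels, in duplicate.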

SMILES: CCC(=O)c1ccc(OCC(O)CN2CC(C)OC(C)C2)cc1.O=C(O)C(=O)O (stereo not drawn) [MLS000053342-01]
- Burkin Assay in Myoblasts, signal relative to DMSO ([1]; 0.5 uM): 1.222
- Burkin Assay in Myoblasts, signal relative to DMSO ([1]; 1 uM): 1.088
- Burkin Assay in Myoblasts, signal relative to DMSO ([1]; 5 uM): 0.9766
- Burkin Assay in Myoblasts, signal relative to DMSO ([1]; 10 uM): 0.8668
- Burkin Assay in Myoblasts, signal relative to DMSO ([1]; 20 uM): 1.0354
- Burkin Assay in Myoblasts, signal relative to DMSO ([1]; 40 uM): 1.022
- Burkin Assay in Myotubes, α7 integrin LacZ reporter signal relative to DMSO ([2]; 0.5 uM): 1.059
- Burkin Assay in Myotubes, α7 integrin LacZ reporter signal relative to DMSO ([2]; 1 uM): 1.011
- Burkin Assay in Myotubes, α7 integrin LacZ reporter signal relative to DMSO ([2]; 5 uM): 1.002
- Burkin Assay in Myotubes, α7 integrin LacZ reporter signal relative to DMSO ([2]; 10 uM): 1.03
- Burkin Assay in Myotubes, α7 integrin LacZ reporter signal relative to DMSO ([2]; 20 uM): 1.049
- Burkin Assay in Myotubes, α7 integrin LacZ reporter signal relative to DMSO ([2]; 40 uM): 1.11
- CMV-LACZ in Myoblasts (β-galactosidase activity relative to DMSO) ([3]; 0.5 uM): 1.0289
- CMV-LACZ in Myoblasts (β-galactosidase activity relative to DMSO) ([3]; 1 uM): 1.0397
- CMV-LACZ in Myoblasts (β-galactosidase activity relative to DMSO) ([3]; 5 uM): 1.0865
- CMV-LACZ in Myoblasts (β-galactosidase activity relative to DMSO) ([3]; 10 uM): 0.8785
- CMV-LACZ in Myoblasts (β-galactosidase activity relative to DMSO) ([3]; 20 uM): 0.9811
- CMV-LACZ in Myoblasts (β-galactosidase activity relative to DMSO) ([3]; 40 uM): 0.9930
- CMV-LACZ in Myotubes, signal relative to DMSO ([4]; 0.5 uM): 0.9947
- CMV-LACZ in Myotubes, signal relative to DMSO ([4]; 1 uM): 0.9863
- CMV-LACZ in Myotubes, signal relative to DMSO ([4]; 5 uM): 0.9033
- CMV-LACZ in Myotubes, signal relative to DMSO ([4]; 10 uM): 0.9187
- CMV-LACZ in Myotubes, signal relative to DMSO ([4]; 20 uM): 1.3044
- CMV-LACZ in Myotubes, signal relative to DMSO ([4]; 40 uM): 1.1344

SMILES: CC(=O)C1=C(C)Nc2ncnn2C1c1ccc(C)cc1 (stereo not drawn) [MLS001197779-01]
- Burkin Assay in Myoblasts, signal relative to DMSO ([1]; 0.5 uM): 0.9161
- Burkin Assay in Myoblasts, signal relative to DMSO ([1]; 1 uM): 1.0032
- Burkin Assay in Myoblasts, signal relative to DMSO ([1]; 5 uM): 1.281
- Burkin Assay in Myoblasts, signal relative to DMSO ([1]; 10 uM): 0.9869
- Burkin Assay in Myoblasts, signal relative to DMSO ([1]; 20 uM): 0.8467
- Burkin Assay in Myoblasts, signal relative to DMSO ([1]; 40 uM): 0.753
- Burkin Assay in Myotubes, α7 integrin LacZ reporter signal relative to DMSO ([2]; 0.5 uM): 1.038
- Burkin Assay in Myotubes, α7 integrin LacZ reporter signal relative to DMSO ([2]; 1 uM): 0.961
- Burkin Assay in Myotubes, α7 integrin LacZ reporter signal relative to DMSO ([2]; 5 uM): 1.102
- Burkin Assay in Myotubes, α7 integrin LacZ reporter signal relative to DMSO ([2]; 10 uM): 0.9249
- Burkin Assay in Myotubes, α7 integrin LacZ reporter signal relative to DMSO ([2]; 20 uM): 0.8237
- Burkin Assay in Myotubes, α7 integrin LacZ reporter signal relative to DMSO ([2]; 40 uM): 0.913
- CMV-LACZ in Myoblasts (β-galactosidase activity relative to DMSO) ([3]; 0.5 uM): 0.8987
- CMV-LACZ in Myoblasts (β-galactosidase activity relative to DMSO) ([3]; 1 uM): 1.2563
- CMV-LACZ in Myoblasts (β-galactosidase activity relative to DMSO) ([3]; 5 uM): 0.7604
- CMV-LACZ in Myoblasts (β-galactosidase activity relative to DMSO) ([3]; 10 uM): 0.6490
- CMV-LACZ in Myoblasts (β-galactosidase activity relative to DMSO) ([3]; 20 uM): 0.9846
- CMV-LACZ in Myoblasts (β-galactosidase activity relative to DMSO) ([3]; 40 uM): 1.1267
- CMV-LACZ in Myotubes, signal relative to DMSO ([4]; 0.5 uM): 1.1286
- CMV-LACZ in Myotubes, signal relative to DMSO ([4]; 1 uM): 1.1705
- CMV-LACZ in Myotubes, signal relative to DMSO ([4]; 5 uM): 1.0456
- CMV-LACZ in Myotubes, signal relative to DMSO ([4]; 10 uM): 1.0983
- CMV-LACZ in Myotubes, signal relative to DMSO ([4]; 20 uM): 1.0630
- CMV-LACZ in Myotubes, signal relative to DMSO ([4]; 40 uM): 1.0540

SMILES: O=C1Nc2ccccc2/C1=C/c1ccccc1Cl [MLS001202425-01]
- Burkin Assay in Myoblasts, value relative to DMSO ([1]; 0.5 uM): 1.2214
- Burkin Assay in Myoblasts, value relative to DMSO ([1]; 1 uM): 1.219
- Burkin Assay in Myoblasts, value relative to DMSO ([1]; 5 uM): 0.9673
- Burkin Assay in Myoblasts, value relative to DMSO ([1]; 10 uM): 0.8645
- Burkin Assay in Myoblasts, value relative to DMSO ([1]; 20 uM): 0.7465
- Burkin Assay in Myoblasts, value relative to DMSO ([1]; 40 uM): 0.3445
- Burkin Assay in Myotubes, value relative to DMSO ([2]; 0.5 uM): 1.148
- Burkin Assay in Myotubes, value relative to DMSO ([2]; 1 uM): 1.205
- Burkin Assay in Myotubes, value relative to DMSO ([2]; 5 uM): 0.9499
- Burkin Assay in Myotubes, value relative to DMSO ([2]; 10 uM): 0.8033
- Burkin Assay in Myotubes, value relative to DMSO ([2]; 20 uM): 0.5178
- Burkin Assay in Myotubes, value relative to DMSO ([2]; 40 uM): 0.354
- CMV-LACZ in Myoblasts, value relative to DMSO ([3]; 0.5 uM): 1.0625
- CMV-LACZ in Myoblasts, value relative to DMSO ([3]; 1 uM): 1.0919
- CMV-LACZ in Myoblasts, value relative to DMSO ([3]; 5 uM): 0.8675
- CMV-LACZ in Myoblasts, value relative to DMSO ([3]; 10 uM): 1.1386
- CMV-LACZ in Myoblasts, value relative to DMSO ([3]; 20 uM): 0.9081
- CMV-LACZ in Myoblasts, value relative to DMSO ([3]; 40 uM): 0.6233
- CMV-LACZ in Myotubes, value relative to DMSO ([4]; 0.5 uM): 0.8793
- CMV-LACZ in Myotubes, value relative to DMSO ([4]; 1 uM): 1.0185
- CMV-LACZ in Myotubes, value relative to DMSO ([4]; 5 uM): 1.1496
- CMV-LACZ in Myotubes, value relative to DMSO ([4]; 10 uM): 1.0423
- CMV-LACZ in Myotubes, value relative to DMSO ([4]; 20 uM): 0.9918
- CMV-LACZ in Myotubes, value relative to DMSO ([4]; 40 uM): 0.9976
